Values quoted from earlier work, collected in paper PMC9120017, “Inhibition mechanism of the chloride channel TMEM16A by the pore blocker 1PBC” (Nature Communications, 2022).

System: TMEM16A
Settings: cited from earlier work

Compound	Inhibition of TMEM16A	Selectivity for anion channels of the TMEM16 family over the scramblase TMEM16F
O=C(O)c1c2ccccc2cc2ccccc12 [9-AC, 9-anthracene carboxylate]	inhibit TMEM16A	–
O=S(=O)(O)c1cc(N=C=S)ccc1C=Cc1ccc(N=C=S)cc1S(=O)(=O)O [DIDS, 4,4′-Diisothiocyanato-2,2′-stilbenedisulfonic acid]	inhibit TMEM16A	–
O=C(O)c1cccnc1Nc1cccc(C(F)(F)F)c1 [NFA]	–	selective for anion channels of the TMEM16 family over the scramblase TMEM16F
O=C(O)c1cc([N+](=O)[O-])ccc1NCCCc1ccccc1 [NPPB]	–	selective for anion channels of the TMEM16 family over the scramblase TMEM16F
O=C(Nc1ccc([N+](=O)[O-])cc1Cl)c1cc(Cl)ccc1O [niclosamide]	inhibit TMEM16A	–
